Test results reported in PMC8895007, “Crystal structures of PigF, an O-methyltransferase involved in the prodigiosin synthetic pathway, reveal an induced-fit substrate-recognition mechanism” (IUCrJ, 2022).

Key:
PigF = target: T1, PigF (Serratia marcescens, UniProt Q5W249); experiment: X-ray crystal structure (co-crystallisation), […] A; format: binding; details: 2 mM SAH premixed 30 min; pH 4.6, 12% MPD; cofactor site in C-terminal catalytic domain
T1 construct: residues 3-338 seen in SAH complex

[1] = target: the molecule itself; experiment: native gel or EMSA; nondenaturing gel, comparison with standards; PigF in solution

Row | Molecule | X-ray crystal structure (co-crystallisation), 1.97 A (PigF) | stoichiometry N [1]
1 | Nc1ncnc2c1ncn2[C@@H]1O[C@H](CSCC[C@H](N)C(=O)O)[C@@H](O)[C@H]1O [S-adenosylhomocysteine] | the resulting phased map revealed clear electron density for the entire protein molecule and the SAH cofactor | 
2 | PigF, O-methyltransferase of the prodigiosin synthetic pathway from Serratia marcescens FS14 (enzyme, PigF of Serratia marcescens FS14, 338 amino-acid residues; 100% identical to PigF of S. marcescens VGH107 (NCBI WP 004940222.1); residues 3-338 are seen in both chains of the PigF-SAH structure; Cloned into pET-24b as in Liu et al., 2012; The results call the protein N-terminally polyhistidine-tagged; pET-24b usually adds a C-terminal His tag (surmise); Crystallised with 2 mM SAH (small molecule) …) MPLTKQDAVNQMMGFFQAKALTAALALKLFDQLRDRDADAAHIAARLDCPARSTEQLLIALRAMGYLDQRDGLYHLPAAHRAFLLSDEPQWLGWLGRHIDTFLYPLWGELKTAVRNDAHQRRTVFGDDRSWFDILYQNPDDVADFQEFLGKFAAPFIAGFVRDYDFSQHRAFLDIGSGIGSLPMAIADAYPGIALAICELPQASAFLRDKLTLQGYGERIDVVEGDVISGDLPIGGYDLIHLGWMLHDYAPETQLTILRNIYRAMPAGGRFIASETPLNEDKSGPEFTALLSLNMLVSTDGGIESSAQEYLDRFRLAGFSNARIMKIAGPRTLIVGEK |  | 2
